{"source": "patent US6046218A", "about": "“Pyridine derivative and medicament containing the same as an effective ingredient” (SS Pharmaceutical Co., Ltd., priority 1996, dated 2000)", "key": {"IgE production": {"system": "IgE production", "test": "Test 4: inhibition of IgE production by spleen cells of orally treated sensitized mice", "type": "in vivo, Balb/c mouse", "settings": "Mus musculus, po, 100 mg/kg orally once a day, Day 1 to Day 10, DNP-BSA 5 μg/ml, 24 hours, read-out: Inhibition rate of IgE production", "method": "(§1) Test 4: Test on the inhibition of IgE production\n(§2) To a Balb/c mouse, the DNP-labeled ascaris antigen (5 μg) and Alum (1 mg) were intraperitoneally administered on Day 1 and Day 6 to sensitize the mouse with the antibody. From Day 1 to Day 10, a medicament was orally administered at a dose of 100 mg/kg once a day. On Day 11, the mouse was subjected to splenectomy and the spleen so obtained was untangled into its cells. To 5×10^7 cells/ml of the spleen cells so obtained, DNP-BSA (5 μg/ml) was added, followed by incubation at 37° C. for 24 hours. After incubation, 100 μl of the supernatant were collected and subjected to the measurement an IgE measuring kit (Yamasa Co., Ltd.). In order to determine IgG1, IgG2a and IgM, the absorbance of the incubated supernatant was measured by the EIA method and provided for comparison. The inhibition rate of IgE production was calculated according to the below-described formula. Inhibition rates of the IgG1, IgG2a and IgM production were similarly calculated, respectively. [formula]"}, "IL-4 production": {"system": "IL-4 production", "test": "Test 2: inhibition of IL-4 production in human T-cell strain ATL-16T(-) stimulated with PMA (Bio Source EIA)", "type": "cell-based", "settings": "ATL-16T(-) 5×10^5 cells/0.5 ml/well, 20 nM PMA, 48 hours, read-out: Inhibition rate of IL-4 production; for inhibition at 10 µM: 10^-5 M; for inhibition at 1 µM: 10^-6 M; for inhibition at 0.1 µM: 10^-7 M; for inhibition at 0.01 µM: 10^-8 M", "method": "Test 2: Test on the inhibition of IL-4 production\nInto individual wells of a 48-well microplate, the human T-cell strain ATL-16T(-) was poured at a concentration of 5×10^5 cells/0.5 ml/well (n=3), followed by the addition of a stimulator (20 nM of PMA) and a medicament at the same time. The resulting mixture was incubated in 5% CO2 at 37° C. for 48 hours. After incubation, 50 μl of the supernatant were collected and subjected to measurement by a human IL-4 EIA kit (BIO SOURCE, INC.). The inhibition rate was calculated according to the following formula. [formula]"}, "IL-5 production": {"system": "IL-5 production", "test": "Test 3: inhibition of IL-5 production in human PBMC stimulated with ConA", "type": "cell-based", "settings": "10^-6 M, 10 μg/ml ConA, 48 hours, read-out: Inhibition rate of IL-5 production", "outline": "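Human PBMC from a normal volunteer, 1×10^6 cells/ml in AIM-V, stimulated with 10 μg/ml ConA alongside compound and incubated 48 h at 37 °C, 5% CO2. Supernatant IL-5 quantified by EIA; inhibition rate calculated from a formula.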"}, "IgM production": {"system": "IgM production", "test": "Test 4 (comparison): inhibition of IgM production", "type": "in vivo, Balb/c mouse", "settings": "100 mg/kg orally once a day; for inhibition at 100 mg/kg: Mus musculus, po, Day 1 to Day 10, spleen cells, DNP-BSA 5 μg/ml, 24 hours, read-out: Inhibition rate of IgM production; for effects on the production of IgM: in words", "method": "as §1, §2"}, "IgG1 production": {"system": "IgG1 production", "test": "Test 4 (comparison): inhibition of IgG1 production", "type": "in vivo, Balb/c mouse", "settings": "100 mg/kg orally once a day; for inhibition at 100 mg/kg: Mus musculus, po, Day 1 to Day 10, spleen cells, DNP-BSA 5 μg/ml, 24 hours, read-out: Inhibition rate of IgG1 production; for effects on the production of IgG1: in words", "method": "as §1, §2"}, "IgG2a production": {"system": "IgG2a production", "test": "Test 4 (comparison): inhibition of IgG2a production", "type": "in vivo, Balb/c mouse", "settings": "100 mg/kg orally once a day; for inhibition at 100 mg/kg: Mus musculus, po, Day 1 to Day 10, spleen cells, DNP-BSA 5 μg/ml, 24 hours, read-out: Inhibition rate of IgG2a production; for effects on the production of IgG2a: in words", "method": "as §1, §2"}}, "note": "Where a name gives a salt, the structure may show the parent alone.", "data": [{"smiles": "CCOC(=O)CCCCCOc1cc(/C=C/C(=O)c2ccc(OC)cc2OC)ncc1OC", "note": "[Ex. 92, Ethyl 6-[5-methoxy-2-(3-(2,4-dimethoxyphenyl)-3-oxo-1-propenyl)-4-pyridyloxy]hexanoate hydrochloride]", "values": [{"measurement": "inhibition at 100 mg/kg", "setting": "IgE production", "value": 61.2, "unit": "%"}, {"measurement": "inhibition at 10 µM", "setting": "IL-4 production", "value": 54.2, "unit": "%"}, {"measurement": "inhibition at 1 µM", "setting": "IL-4 production", "value": 48.4, "unit": "%"}, {"measurement": "inhibition at 0.1 µM", "setting": "IL-4 production", "value": 31, "unit": "%"}, {"measurement": "inhibition at 0.01 µM", "setting": "IL-4 production", "value": 25.3, "unit": "%"}, {"measurement": "inhibition at 1 µM", "setting": "IL-5 production", "value": 96.4, "unit": "%"}, {"measurement": "inhibition at 100 mg/kg", "setting": "IgM production", "value": -8.3, "unit": "%"}, {"measurement": "effects on the production of IgM", "setting": "IgM production", "value": "No effects were observed"}, {"measurement": "inhibition at 100 mg/kg", "setting": "IgG1 production", "value": -4.3, "unit": "%"}, {"measurement": "effects on the production of IgG1", "setting": "IgG1 production", "value": "No effects were observed"}, {"measurement": "inhibition at 100 mg/kg", "setting": "IgG2a production", "value": -6, "unit": "%"}, {"measurement": "effects on the production of IgG2a", "setting": "IgG2a production", "value": "No effects were observed"}]}, {"smiles": "CCOC(=O)CCCCCOc1cc(/C=C/C(=O)c2ccccc2OC)ncc1OC", "note": "[Ex. 94, Ethyl 6-[5-methoxy-2-(3-(2-methoxyphenyl)-3-oxo-1-propenyl)-4-pyridyloxy]hexanoate hydrochloride]", "values": [{"measurement": "inhibition at 100 mg/kg", "setting": "IgE production", "value": 63.4, "unit": "%"}, {"measurement": "inhibition at 10 µM", "setting": "IL-4 production", "value": 74.4, "unit": "%"}, {"measurement": "inhibition at 1 µM", "setting": "IL-4 production", "value": 70.4, "unit": "%"}, {"measurement": "inhibition at 0.1 µM", "setting": "IL-4 production", "value": 66.5, "unit": "%"}, {"measurement": "inhibition at 0.01 µM", "setting": "IL-4 production", "value": 62.3, "unit": "%"}, {"measurement": "inhibition at 1 µM", "setting": "IL-5 production", "value": 95.2, "unit": "%"}, {"measurement": "inhibition at 100 mg/kg", "setting": "IgM production", "value": -1.6, "unit": "%"}, {"measurement": "effects on the production of IgM", "setting": "IgM production", "value": "No effects were observed"}, {"measurement": "inhibition at 100 mg/kg", "setting": "IgG1 production", "value": 7, "unit": "%"}, {"measurement": "effects on the production of IgG1", "setting": "IgG1 production", "value": "No effects were observed"}, {"measurement": "inhibition at 100 mg/kg", "setting": "IgG2a production", "value": 2.8, "unit": "%"}, {"measurement": "effects on the production of IgG2a", "setting": "IgG2a production", "value": "No effects were observed"}]}, {"smiles": "CCOC(=O)CCCCCCOc1cc(/C=C/C(=O)c2ccccc2OC)ncc1OC", "note": "[Ex. 96, Ethyl 7-[5-methoxy-2-(3-(2-methoxyphenyl)-3-oxo-1-propenyl)-4-pyridyloxy]heptanoate hydrochloride]", "values": [{"measurement": "inhibition at 100 mg/kg", "setting": "IgE production", "value": 63.2, "unit": "%"}, {"measurement": "inhibition at 10 µM", "setting": "IL-4 production", "value": 102, "unit": "%"}, {"measurement": "inhibition at 1 µM", "setting": "IL-4 production", "value": 76.2, "unit": "%"}, {"measurement": "inhibition at 0.1 µM", "setting": "IL-4 production", "value": 78.6, "unit": "%"}, {"measurement": "inhibition at 0.01 µM", "setting": "IL-4 production", "value": 78.2, "unit": "%"}, {"measurement": "inhibition at 1 µM", "setting": "IL-5 production", "value": 79.8, "unit": "%"}, {"measurement": "inhibition at 100 mg/kg", "setting": "IgM production", "value": 9.6, "unit": "%"}, {"measurement": "effects on the production of IgM", "setting": "IgM production", "value": "No effects were observed"}, {"measurement": "inhibition at 100 mg/kg", "setting": "IgG1 production", "value": 5, "unit": "%"}, {"measurement": "effects on the production of IgG1", "setting": "IgG1 production", "value": "No effects were observed"}, {"measurement": "inhibition at 100 mg/kg", "setting": "IgG2a production", "value": 8.3, "unit": "%"}, {"measurement": "effects on the production of IgG2a", "setting": "IgG2a production", "value": "No effects were observed"}]}, {"smiles": "CCOC(=O)CCCCCCCOc1cc(/C=C/C(=O)c2ccccc2OC)ncc1OC", "note": "[Ex. 98, Ethyl 8-[5-methoxy-2-(3-(2-methoxyphenyl)-3-oxo-1-propenyl)-4-pyridyloxy]octanoate hydrochloride]", "values": [{"measurement": "inhibition at 100 mg/kg", "setting": "IgE production", "value": 50.1, "unit": "%"}, {"measurement": "inhibition at 10 µM", "setting": "IL-4 production", "value": 100, "unit": "%"}, {"measurement": "inhibition at 1 µM", "setting": "IL-4 production", "value": 85.6, "unit": "%"}, {"measurement": "inhibition at 0.1 µM", "setting": "IL-4 production", "value": 76.1, "unit": "%"}, {"measurement": "inhibition at 0.01 µM", "setting": "IL-4 production", "value": 75.7, "unit": "%"}, {"measurement": "inhibition at 1 µM", "setting": "IL-5 production", "value": 96.8, "unit": "%"}, {"measurement": "inhibition at 100 mg/kg", "setting": "IgM production", "value": -2.6, "unit": "%"}, {"measurement": "effects on the production of IgM", "setting": "IgM production", "value": "No effects were observed"}, {"measurement": "inhibition at 100 mg/kg", "setting": "IgG1 production", "value": 5.4, "unit": "%"}, {"measurement": "effects on the production of IgG1", "setting": "IgG1 production", "value": "No effects were observed"}, {"measurement": "inhibition at 100 mg/kg", "setting": "IgG2a production", "value": -4.1, "unit": "%"}, {"measurement": "effects on the production of IgG2a", "setting": "IgG2a production", "value": "No effects were observed"}]}, {"smiles": "COc1cnc(/C=C/C(=O)c2ccccc2OC)cc1OCCCCCC(=O)O", "note": "[Ex. 105, 6-[5-Methoxy-2-(3-(2-methoxyphenyl)-3-oxo-1-propenyl)-4-pyridyloxy]hexanoicacid]", "values": [{"measurement": "inhibition at 100 mg/kg", "setting": "IgE production", "value": 47.7, "unit": "%"}, {"measurement": "inhibition at 10 µM", "setting": "IL-4 production", "value": 101, "unit": "%"}, {"measurement": "inhibition at 1 µM", "setting": "IL-4 production", "value": 70.9, "unit": "%"}, {"measurement": "inhibition at 0.1 µM", "setting": "IL-4 production", "value": 69.6, "unit": "%"}, {"measurement": "inhibition at 0.01 µM", "setting": "IL-4 production", "value": 68.7, "unit": "%"}, {"measurement": "inhibition at 1 µM", "setting": "IL-5 production", "value": 71, "unit": "%"}, {"measurement": "inhibition at 100 mg/kg", "setting": "IgM production", "value": 0.5, "unit": "%"}, {"measurement": "effects on the production of IgM", "setting": "IgM production", "value": "No effects were observed"}, {"measurement": "inhibition at 100 mg/kg", "setting": "IgG1 production", "value": -4.2, "unit": "%"}, {"measurement": "effects on the production of IgG1", "setting": "IgG1 production", "value": "No effects were observed"}, {"measurement": "inhibition at 100 mg/kg", "setting": "IgG2a production", "value": -1.8, "unit": "%"}, {"measurement": "effects on the production of IgG2a", "setting": "IgG2a production", "value": "No effects were observed"}]}, {"smiles": "COc1cnc(/C=C/C(=O)C2CCCCC2)cc1OCCCC(=O)O", "note": "[Ex. 106, 4-[2-(3-Cyclohexyl-3-oxo-1-propenyl)-5-methoxy-4-pyridyloxy]butanoic acid]", "values": [{"measurement": "inhibition at 100 mg/kg", "setting": "IgE production", "value": 28.8, "unit": "%"}, {"measurement": "inhibition at 10 µM", "setting": "IL-4 production", "value": 75.6, "unit": "%"}, {"measurement": "inhibition at 1 µM", "setting": "IL-4 production", "value": 31.7, "unit": "%"}, {"measurement": "inhibition at 0.1 µM", "setting": "IL-4 production", "value": 9.4, "unit": "%"}, {"measurement": "inhibition at 0.01 µM", "setting": "IL-4 production", "value": 8.6, "unit": "%"}, {"measurement": "inhibition at 1 µM", "setting": "IL-5 production", "value": 78.7, "unit": "%"}, {"measurement": "inhibition at 100 mg/kg", "setting": "IgM production", "value": -7.3, "unit": "%"}, {"measurement": "inhibition at 100 mg/kg", "setting": "IgG1 production", "value": -0.8, "unit": "%"}, {"measurement": "inhibition at 100 mg/kg", "setting": "IgG2a production", "value": 2.1, "unit": "%"}]}]}
